Measured values reported in US20200392239A1, “USE OF A MULTIMERIC ANTI-DR5 BINDING MOLECULE IN COMBINATION WITH A CHEMOTHERAPEUTIC AGENT FOR TREATING CANCER” (IGM Biosciences, Inc., priority 2018, published 2020).

Assays:
[1] = reason for not progressing in clinical development; cited from earlier work
HCT15 tumor cells = assay: HCT15 tumor model in athymic nude mice (IgG resistant colon tumor model); type: in vivo; settings: 3 mg/kg IgM 5 times daily i.v.; compared with 3 mg/kg anti-DR5 IgG and 80 mg/kg Irinotecan
Protocol: Combination therapy with an anti-DR5 IgM antibody and standard of care Irinotecan was assessed in an HCT15 tumor model as follows.
In the first experiment, anti-DR5 IgG, anti-DR5 IgM, and Irinotecan monotherapies were compared. Athymic nude mice were subcutaneously implanted with 1×10^7 HCT15 tumor cells.
When the tumors reached 150-200 mm^3, the animals were dosed intravenously with either vehicle 5 times daily, 3 mg/kg of anti-DR5 IgM 5 times daily, 80 mg/kg of Irinotecan (Sigma I1406) 3 times within the first week, or the combined anti-DR5 IgM and Irinotecan dosing regimens.

## CC1(C)CCC(c2ccc(Cl)cc2)=C(CN2CCN(c3ccc(C(=O)NS(=O)(=O)c4ccc(N[C@H](CCN5CCOCC5)CSc5ccccc5)c(S(=O)(=O)C(F)(F)F)c4)cc3)CC2)C1 [ABT-263, 4-(4-{[2-(4-Chlorophenyl)-5,5-dimethyl-1-cyclohexen-1-yl]methyl}-1-piperazinyl)-N-[(4-{[(2R)-4-(4-morpholinyl)-1-(phenylsulfany)-2-butanyl]amino}-3-[(trifluoromethyl)sulfonyl]phenyl)sulfonyl]benzamide]
[1]
  side effects: dose-limiting side effects

## CN(C)CC[C@H](CSc1ccccc1)Nc1ccc(S(=O)(=O)NC(=O)c2ccc(N3CCN(Cc4ccccc4-c4ccc(Cl)cc4)CC3)cc2)cc1[N+](=O)[O-] [ABT-737, 4-{4-[(4′-Chloro-2-biphenylyl)methyl]-1-piperazinyl}-N-[(4-{[(2R)-4-(dimethylamino)-1-(phenylsulfanyl)-2-butanyl]amino}-3-nitrophenyl)sulfonyl]benzamide]
[1]
  bioavailability: low
  solubility: low

B1: anti-DR5 IgM Mab #2: anti-DR5 IgM comprising VH and VL SEQ ID NO: 5 and SEQ ID NO: 6, constructed as in US 2018-0009897 (antibody, V domains shown)
VH: QVQLQESGPGLVKPSQTLSLTCTVSGGSISSGDYFWSWIRQLPGKGLECIGHIHNSGTTYYNPSLKSRVTISVDTSKKQFSLRLSSVTAADTAVYYCARDRGGDYYYGMDVWGQGTTVTVSS
VL: EIVLTQSPGTLSLSPGERATLSCRASQGISRSYLAWYQQKPGQAPSLLIYGASSRATGIPDRFSGSGSGTDFTLTISRLEPEDFAVYYCQQFGSSPWTFGQGTKVEIK
modifications: IgM constant regions
HCT15 tumor cells
  efficacy of monotherapies (tumor volume, overall survival): most effective
